Values joined by “and” are separate entries in the source; they are usually repeats but may differ in a detail not shown here. Equal entries are not always repeated.
How the values were obtained:
Format in all cases: cell-based
CNR1 [1] = target: T1, CNR1 (Homo sapiens, UniProt P21554); test: cAMP Hunter eXpress CNR1 (CB1) CHO-K1 GPCR assay
T1 construct: host or cells: CHO-K1
Method: The experiments (agonist and antagonist mode) were carried out by DiscoveRx Corporation (Fremont, CA, USA). Human CNR1 in stably transfected CHO-K1 cells were seeded in a total volume of 20 μL into white-walled, 384-well microplates and incubated at 37 °C overnight. Before testing, cell plating media was exchanged with 10 μL of assay buffer (HBSS + 10 mM HEPES).
As described in catalog ref. (86-0007P-2277AG) for the agonist mode, intermediate dilution of sample stocks was performed to generate 4× samples in assay buffer. A total of 5 μL of 4× sample and 5 μL of 4× forskolin were added to cells and incubated at 37 °C for 30 min. The final assay vehicle concentration was 1%. The results are expressed as a percent efficacy relative to the maximum response of the control ligand.
As described in catalog ref. (86-0007P-2277AN) for the antagonist mode, intermediate dilution of sample stocks was performed to generate 4× samples in assay buffer. A total of 5 μL of 4X sample was added to cells and incubated at 37 °C for 30 min, and 5uL of 4× EC80 of CP55940 in 4× forskolin reagent was added and cells incubated for 37 °C for 30 min. The final assay vehicle concentration was 1%. The results are expressed as a percent inhibition of the control ligand. The assays were performed at 10-point concentrations of 4 using 3-fold serial dilutions in duplicate, where the highest concentration was 50 µM.

CNR1 [2] = target: T1, CNR1; test: PathHunter β-arrestin GpcrMAX assay
Method: (§1) GpcrMAX panel biosensor assays were used to characterize taveuniamide F (4, 20 µM) (agonist and antagonist mode). The experiments were carried out by DiscoveRx Corporation (Fremont, CA, USA) as described before, using PathHunter β-arrestin enzyme fragment complementation (EFC) technology.
(§2) Dose–response curves were obtained by subjecting taveuniamide F (4) to a secondary antagonist screen utilizing ten GPCR biosensor assays (Arrestin) against the following targets: GPR119, NPSR1b, HTR2C, CCR9, CHRM4, GPR120, HTR2A, GPR103, CNR1, and CNR2. Stably transfected HEK293 cells expressing GPR119, U2OS cells expressing NPSR1b, HTR2C and HTR2A, and CHO-K1 cells expressing the rest of the mentioned receptors, were incubated with 4 for 30 min. The assays were performed at 10-point concentrations using 3-fold serial dilutions in duplicate, where the highest concentration was 50 µM.

GPR120 = target: T2, GPR120 (Homo sapiens, UniProt Q5NUL3); test: PathHunter β-arrestin GpcrMAX assay
T2 construct: host or cells: CHO-K1
T2 sequence (Q5NUL3 1-361): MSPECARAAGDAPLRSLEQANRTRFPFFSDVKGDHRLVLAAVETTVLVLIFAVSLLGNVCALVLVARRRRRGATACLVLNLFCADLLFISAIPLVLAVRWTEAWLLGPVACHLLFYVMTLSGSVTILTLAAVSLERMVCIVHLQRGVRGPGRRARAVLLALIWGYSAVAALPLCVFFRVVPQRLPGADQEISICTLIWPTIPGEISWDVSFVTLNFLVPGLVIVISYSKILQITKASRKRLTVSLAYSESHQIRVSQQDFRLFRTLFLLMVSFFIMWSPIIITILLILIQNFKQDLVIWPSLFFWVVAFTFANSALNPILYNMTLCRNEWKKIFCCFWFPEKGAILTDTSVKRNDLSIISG
Method: as §1, §2

GPR119 = target: T3, GPR119 (Homo sapiens, UniProt Q8TDV5); test: PathHunter β-arrestin GpcrMAX assay
T3 construct: host or cells: HEK293
T3 sequence (Q8TDV5 whole entry): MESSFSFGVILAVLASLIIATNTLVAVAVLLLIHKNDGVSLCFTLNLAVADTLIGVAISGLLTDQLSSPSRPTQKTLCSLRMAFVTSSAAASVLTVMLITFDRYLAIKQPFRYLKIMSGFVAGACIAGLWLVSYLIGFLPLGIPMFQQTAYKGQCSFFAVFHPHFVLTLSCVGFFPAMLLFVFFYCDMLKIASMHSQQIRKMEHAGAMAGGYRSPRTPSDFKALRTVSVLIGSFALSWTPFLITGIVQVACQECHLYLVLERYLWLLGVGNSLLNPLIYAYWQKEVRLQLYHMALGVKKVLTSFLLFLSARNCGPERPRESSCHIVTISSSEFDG
Method: as §1, §2

CCR9 = target: T4, CCR9 (Homo sapiens, UniProt P51686); test: PathHunter β-arrestin GpcrMAX assay
T4 construct: host or cells: CHO-K1
T4 sequence (P51686 1-369): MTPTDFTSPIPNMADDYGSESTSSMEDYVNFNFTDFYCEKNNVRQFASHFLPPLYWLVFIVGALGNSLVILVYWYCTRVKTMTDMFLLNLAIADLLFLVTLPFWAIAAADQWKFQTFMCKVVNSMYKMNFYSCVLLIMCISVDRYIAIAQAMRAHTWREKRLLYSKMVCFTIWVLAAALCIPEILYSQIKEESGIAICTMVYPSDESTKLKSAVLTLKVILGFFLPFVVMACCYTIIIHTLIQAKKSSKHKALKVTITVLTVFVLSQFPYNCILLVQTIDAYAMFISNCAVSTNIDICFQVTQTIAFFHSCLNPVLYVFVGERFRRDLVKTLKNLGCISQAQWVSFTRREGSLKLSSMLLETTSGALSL
Method: as §1, §2

[3] = antagonist dose–response, 10-point, CHO-K1 cells, 30 min
[4] = antagonist mode (% inhibition), 20 µM

T1 sequence (P21554 whole entry): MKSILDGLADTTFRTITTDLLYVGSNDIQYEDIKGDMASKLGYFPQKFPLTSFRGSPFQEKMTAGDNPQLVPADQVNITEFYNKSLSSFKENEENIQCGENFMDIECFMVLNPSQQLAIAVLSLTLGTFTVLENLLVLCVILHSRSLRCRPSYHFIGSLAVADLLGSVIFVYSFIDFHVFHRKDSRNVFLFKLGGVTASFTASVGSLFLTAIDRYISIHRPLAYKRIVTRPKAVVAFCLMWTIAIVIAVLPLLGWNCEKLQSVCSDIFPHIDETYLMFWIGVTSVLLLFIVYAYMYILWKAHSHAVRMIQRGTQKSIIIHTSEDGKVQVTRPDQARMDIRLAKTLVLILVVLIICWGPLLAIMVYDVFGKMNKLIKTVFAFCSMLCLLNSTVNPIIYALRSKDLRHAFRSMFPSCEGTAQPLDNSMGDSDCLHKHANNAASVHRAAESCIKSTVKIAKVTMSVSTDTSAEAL

- mode of activity in CNR1 cAMP functional assay (CNR1 [1]; agonist and antagonist mode): antagonist/inverse agonist
- IC50 (CNR1 [1]; antagonist mode, EC80 of CP55940, forskolin, CHO-K1 cells, read-out: IC50, inhibition of CNR1-agonist-induced cAMP downregulation): 21 µM
- IC50 (CNR1 [2]; [3]): 1.84 µM
- inhibition (CNR1 [2]; [4]): ≥ 80%
- inhibition at 20 µM (CNR1 [2]; [4]): 84%
- selectivity for CNR1 over CNR2 (CNR1 [2]; antagonist screen (β-arrestin), CNR1 vs. CNR2): 6.8 fold
- IC50 (GPR120; [3]): 4.7 µM and 4.72 µM
- inhibition (GPR120; [4]): ≥ 80%
- inhibition at 20 µM (GPR120; [4]): 96.9%
- IC50 (GPR119; antagonist dose–response, 10-point, HEK293 cells, 30 min): 11.7 µM
- inhibition (GPR119; [4]): 114% and ≥ 80%
- IC50 (CCR9; [3]): 7.4 µM and 7.38 µM
- inhibition (CCR9; [4]): ≥ 80%
- inhibition at 20 µM (CCR9; [4]): 98.9%
Compound: CC(=O)N[C@@H](CCCC#C/C=C/Cl)CCCCCCC(Cl)Cl [Compound 4, taveuniamide F]

From paper PMC10817531, “Chlorinated Enyne Fatty Acid Amides from a Marine Cyanobacterium: Discovery of Taveuniamides L-M and Pharmacological Characterization of Taveuniamide F as a GPCR Antagonist with CNR1 Selectivity” (Marine Drugs, 2023)
